# Experimental data taken from ChEMBL document CHEMBL1909046, “DrugMatrix in vitro pharmacology data”.
# Key:
# [1] = molecular target: Tyrosine-protein kinase Fyn (Homo sapiens, UniProt P06241); test: biochemical; type: cell-based, Insect cells;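 note: enzymatic inhibition of Fyn kinase activity measured with Poly(Glu:Tyr) as the phosphorylation substrate; in other assays of this panel Not Active means under 50% inhibition at 10 µM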
# [2] = DRUGMATRIX: Calcium Channel Type L, Benzothiazepine radioligand binding (ligand: [3H] Diltiazem); type: cell membranes, Rattus norvegicus, Wistar, Brain, Membrane; settings: Not Active = under 50% inhibition at 10 µM
# [3] = molecular target: 5-hydroxytryptamine receptor 4 (Cavia porcellus, UniProt O70528); type: cell membranes, Dunkin-Hartley, Striatum, Membrane; note: in other assays of this panel Not Active means under 50% inhibition at 10 µM
# Chain of 5-hydroxytryptamine receptor 4 (O70528 whole entry): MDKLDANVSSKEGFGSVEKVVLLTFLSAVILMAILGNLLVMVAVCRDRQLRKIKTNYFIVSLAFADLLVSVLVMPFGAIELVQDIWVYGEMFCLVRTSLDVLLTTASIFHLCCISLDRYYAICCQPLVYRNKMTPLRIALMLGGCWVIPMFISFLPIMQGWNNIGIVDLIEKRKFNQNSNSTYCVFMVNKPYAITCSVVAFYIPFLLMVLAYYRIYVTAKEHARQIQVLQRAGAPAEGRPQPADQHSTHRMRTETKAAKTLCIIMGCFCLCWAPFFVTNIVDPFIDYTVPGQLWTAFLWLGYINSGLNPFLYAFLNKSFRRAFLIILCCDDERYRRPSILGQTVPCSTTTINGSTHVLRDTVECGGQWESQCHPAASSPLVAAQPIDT
# [4] = molecular target: T1, Neuropeptide Y receptor type 2 (Homo sapiens, UniProt P49146); type: cell membranes, Membrane; settings: kan-ts; note: in other assays of this panel Not Active means under 50% inhibition at 10 µM
# T1 sequence (P49146 whole entry): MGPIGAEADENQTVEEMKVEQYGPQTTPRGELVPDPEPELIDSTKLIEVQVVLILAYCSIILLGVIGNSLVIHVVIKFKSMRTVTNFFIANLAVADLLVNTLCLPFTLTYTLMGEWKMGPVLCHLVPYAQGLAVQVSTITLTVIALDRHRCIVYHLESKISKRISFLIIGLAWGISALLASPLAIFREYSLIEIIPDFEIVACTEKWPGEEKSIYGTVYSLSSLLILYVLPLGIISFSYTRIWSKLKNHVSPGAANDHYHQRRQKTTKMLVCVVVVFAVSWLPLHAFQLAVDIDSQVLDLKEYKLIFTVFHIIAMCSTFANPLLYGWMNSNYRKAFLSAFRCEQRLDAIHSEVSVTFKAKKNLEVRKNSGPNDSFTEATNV
# [5] = molecular target: Vascular endothelial growth factor receptor 1 (Homo sapiens, UniProt P17948); test: biochemical; type: cell-based, HUVEC; note: in other assays of this panel Not Active means under 50% inhibition at 10 µM
# Chain of Vascular endothelial growth factor receptor 1 (P17948 whole entry): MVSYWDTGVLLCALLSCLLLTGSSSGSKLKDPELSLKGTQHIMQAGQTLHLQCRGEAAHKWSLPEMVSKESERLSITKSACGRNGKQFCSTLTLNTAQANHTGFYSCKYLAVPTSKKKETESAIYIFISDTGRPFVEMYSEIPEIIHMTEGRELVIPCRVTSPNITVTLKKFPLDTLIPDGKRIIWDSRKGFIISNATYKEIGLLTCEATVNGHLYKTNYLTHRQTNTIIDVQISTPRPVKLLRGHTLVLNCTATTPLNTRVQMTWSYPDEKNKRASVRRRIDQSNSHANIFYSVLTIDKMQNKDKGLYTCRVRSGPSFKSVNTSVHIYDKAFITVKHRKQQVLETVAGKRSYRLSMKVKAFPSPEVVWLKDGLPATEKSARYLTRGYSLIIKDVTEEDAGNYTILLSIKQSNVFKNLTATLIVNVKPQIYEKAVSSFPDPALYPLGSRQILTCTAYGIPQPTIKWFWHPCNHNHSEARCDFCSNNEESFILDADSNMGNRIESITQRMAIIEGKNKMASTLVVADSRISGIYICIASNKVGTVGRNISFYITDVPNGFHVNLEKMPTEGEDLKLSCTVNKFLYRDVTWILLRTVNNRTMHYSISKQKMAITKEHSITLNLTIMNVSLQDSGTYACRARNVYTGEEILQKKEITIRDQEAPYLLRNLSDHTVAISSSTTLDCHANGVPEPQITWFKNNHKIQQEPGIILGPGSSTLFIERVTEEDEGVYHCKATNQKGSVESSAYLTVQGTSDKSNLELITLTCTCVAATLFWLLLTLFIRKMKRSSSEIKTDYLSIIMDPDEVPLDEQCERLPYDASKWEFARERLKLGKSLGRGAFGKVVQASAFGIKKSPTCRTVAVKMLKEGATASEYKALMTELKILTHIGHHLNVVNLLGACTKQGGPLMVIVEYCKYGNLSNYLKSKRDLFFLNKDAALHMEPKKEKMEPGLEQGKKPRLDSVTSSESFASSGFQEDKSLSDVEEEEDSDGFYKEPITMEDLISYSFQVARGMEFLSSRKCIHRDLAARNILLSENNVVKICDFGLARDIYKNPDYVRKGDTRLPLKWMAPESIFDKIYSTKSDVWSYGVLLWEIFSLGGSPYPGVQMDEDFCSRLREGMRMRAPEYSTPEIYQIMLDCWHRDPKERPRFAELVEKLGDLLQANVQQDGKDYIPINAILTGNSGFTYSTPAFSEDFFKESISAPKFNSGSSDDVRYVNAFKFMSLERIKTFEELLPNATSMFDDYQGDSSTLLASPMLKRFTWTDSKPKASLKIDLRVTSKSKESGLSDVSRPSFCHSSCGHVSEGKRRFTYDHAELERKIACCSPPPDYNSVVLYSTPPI
# [6] = molecular target: T2, Cholecystokinin receptor type A (Homo sapiens, UniProt P32238); type: cell membranes, Membrane; settings: 1321-n1; note: in other assays of this panel Not Active means under 50% inhibition at 10 µM
# T2 sequence (P32238 whole entry): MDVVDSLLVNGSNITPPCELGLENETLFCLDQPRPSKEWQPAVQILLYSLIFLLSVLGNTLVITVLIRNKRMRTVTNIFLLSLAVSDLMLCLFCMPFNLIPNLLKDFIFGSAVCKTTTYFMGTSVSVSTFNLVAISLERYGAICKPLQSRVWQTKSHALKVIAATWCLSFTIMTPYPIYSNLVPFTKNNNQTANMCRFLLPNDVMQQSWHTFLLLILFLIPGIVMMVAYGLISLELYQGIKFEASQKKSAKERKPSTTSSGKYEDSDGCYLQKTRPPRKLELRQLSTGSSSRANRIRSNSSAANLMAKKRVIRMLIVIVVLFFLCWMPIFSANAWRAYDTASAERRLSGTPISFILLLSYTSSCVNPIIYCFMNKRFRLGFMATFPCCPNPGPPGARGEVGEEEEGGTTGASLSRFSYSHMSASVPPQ
# Chain of Tyrosine-protein kinase Fyn (P06241 whole entry): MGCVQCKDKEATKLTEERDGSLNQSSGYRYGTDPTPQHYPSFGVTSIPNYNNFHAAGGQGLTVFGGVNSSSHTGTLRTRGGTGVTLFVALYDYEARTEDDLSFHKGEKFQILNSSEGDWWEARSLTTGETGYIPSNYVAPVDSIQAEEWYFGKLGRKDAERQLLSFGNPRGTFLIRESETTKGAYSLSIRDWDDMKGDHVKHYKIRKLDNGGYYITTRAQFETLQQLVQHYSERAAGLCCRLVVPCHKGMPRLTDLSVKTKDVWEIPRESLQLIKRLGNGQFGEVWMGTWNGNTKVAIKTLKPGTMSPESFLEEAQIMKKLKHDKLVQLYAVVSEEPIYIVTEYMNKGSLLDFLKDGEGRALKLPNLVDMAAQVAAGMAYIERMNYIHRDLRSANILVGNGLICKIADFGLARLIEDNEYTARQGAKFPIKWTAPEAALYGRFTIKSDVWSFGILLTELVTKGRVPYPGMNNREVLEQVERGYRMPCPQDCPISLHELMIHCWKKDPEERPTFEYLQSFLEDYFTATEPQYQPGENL
compound,measurement,setting,value
Nn1nnc2ccccc21,IC50,[1]; insect cells,Not Active
same,IC50,[2],Not Active
same,Ki,[2],Not Active
same,IC50,[3],Not Active
same,IC50,[4],Not Active
same,IC50,[5]; huvec,Not Active
same,IC50,[6],Not Active
CC[C@]1(O)CC[C@H]2[C@@H]3CCC4=CCCC[C@@H]4[C@H]3CC[C@@]21C,IC50,[1]; insect cells,Not Active
same,IC50,[2],Not Active
same,Ki,[2],Not Active
same,IC50,[3],Not Active
same,IC50,[4],Not Active
same,IC50,[5]; huvec,Not Active
same,IC50,[6],Not Active
N[C@@H](Cc1ccc(F)cc1)C(=O)O,IC50,[1]; insect cells,Not Active
same,IC50,[2],Not Active
same,Ki,[2],Not Active
same,IC50,[3],Not Active
same,IC50,[4],Not Active
same,IC50,[5]; huvec,Not Active
same,IC50,[6],Not Active
CCOC(=O)[C@H](CCc1ccccc1)N[C@@H](C)C(=O)N1Cc2ccccc2C[C@H]1C(=O)O,IC50,[1]; insect cells,Not Active
same,IC50,[2],Not Active
same,Ki,[2],Not Active
same,IC50,[3],Not Active
same,IC50,[4],Not Active
same,IC50,[5]; huvec,Not Active
same,IC50,[6],Not Active
O=C(c1ccccc1Cl)N1CCC(Cc2ccccc2)CC1,IC50,[1]; insect cells,Not Active
same,IC50,[2],Not Active
same,Ki,[2],Not Active
same,IC50,[3],Not Active
same,IC50,[4],Not Active
same,IC50,[5]; huvec,Not Active
same,IC50,[6],Not Active
CCOC(=O)[C@H](CCc1ccccc1)N[C@@H](C)C(=O)N1CCC[C@H]1C(=O)O,IC50,[1]; insect cells,Not Active
same,IC50,[2],Not Active
same,Ki,[2],Not Active
same,IC50,[3],Not Active
same,IC50,[4],Not Active
same,IC50,[5]; huvec,Not Active
same,IC50,[6],Not Active
"Clc1cc2c(cc1Cl)Oc1cc(Cl)c(Cl)cc1O2 [2,3,7,8-TETRACHLORODIBENZO-P-DIOXIN]",IC50,[1]; insect cells,Not Active
same,IC50,[2],Not Active
same,Ki,[2],Not Active
same,IC50,[3],Not Active
same,IC50,[4],Not Active
same,IC50,[5]; read-out: IC50,0.00269 µM
same,Ki,[5]; read-out: Ki,0.000697 µM
same,IC50,[6],Not Active
C=C1/C(=C\C=C2/CCC[C@]3(C)[C@@H]([C@H](C)CCCC(C)C)CC[C@@H]23)C[C@@H](O)C[C@@H]1O [ALFACALCIDOL],IC50,[1]; insect cells,Not Active
same,IC50,[2],Not Active
same,Ki,[2],Not Active
same,IC50,[3],Not Active
same,IC50,[4],Not Active
same,IC50,[5]; huvec,Not Active
same,IC50,[6],Not Active
CCCCCC[C@H]1C(=O)O[C@H](C)[C@H](NC(=O)c2cccc(NC=O)c2O)C(=O)O[C@@H](C)[C@@H]1OC(=O)CC(C)C [ANTIMYCIN A],IC50,[1]; insect cells,Not Active
same,IC50,[2],Not Active
same,Ki,[2],Not Active
same,IC50,[3],Not Active
same,IC50,[4],Not Active
same,IC50,[5]; huvec,Not Active
same,IC50,[6],Not Active
C[C@@H]1CC[C@H]2[C@@H](C)C(=O)O[C@@H]3O[C@@]4(C)CC[C@@H]1[C@]32OO4 [ARTEMISININ],IC50,[1]; insect cells,Not Active
same,IC50,[2],Not Active
same,Ki,[2],Not Active
same,IC50,[3],Not Active
same,IC50,[4],Not Active
same,IC50,[5]; huvec,Not Active
same,IC50,[6],Not Active
CO[C@H]1[C@@H](O)[C@H](N)[C@@H](O[C@H]2O[C@H]([C@H](C)N)CC[C@H]2N)[C@H](O)[C@@H]1N(C)C(=O)CN [ASTROMICIN],IC50,[1]; insect cells,Not Active
same,IC50,[2],Not Active
same,Ki,[2],Not Active
same,IC50,[3],Not Active
same,IC50,[4],Not Active
same,IC50,[5]; huvec,Not Active
same,IC50,[6],Not Active
[N-]=[N+]=CC(=O)OC[C@H](N)C(=O)O [AZASERINE],IC50,[1]; insect cells,Not Active
same,IC50,[2],Not Active
same,Ki,[2],Not Active
same,IC50,[3],Not Active
same,IC50,[4],Not Active
same,IC50,[5]; huvec,Not Active
same,IC50,[6],Not Active
CC[C@H]1OC(=O)[C@H](C)[C@@H](O[C@H]2C[C@@](C)(OC)[C@@H](O)[C@H](C)O2)[C@H](C)[C@@H](O[C@@H]2O[C@H](C)C[C@H](N(C)C)[C@H]2O)[C@](C)(O)C[C@@H](C)CN(C)[C@H](C)[C@@H](O)[C@]1(C)O [AZITHROMYCIN],IC50,[1]; insect cells,Not Active
same,IC50,[2],Not Active
same,Ki,[2],Not Active
same,IC50,[3],Not Active
same,IC50,[4],Not Active
same,IC50,[5]; huvec,Not Active
same,IC50,[6],Not Active
CC(C)(C)c1ccc(S(=O)(=O)/C=C/C#N)cc1 [BAY-11-7085],IC50,[1]; insect cells,Not Active
same,IC50,[2],Not Active
same,Ki,[2],Not Active
same,IC50,[3],Not Active
same,IC50,[4],Not Active
same,IC50,[5]; huvec,Not Active
same,IC50,[6],Not Active
CCc1oc2ccccc2c1C(=O)c1cc(Br)c(O)c(Br)c1 [BENZBROMARONE],IC50,[1]; insect cells,Not Active
same,IC50,[2],Not Active
same,Ki,[2],Not Active
same,IC50,[3],Not Active
same,IC50,[4],Not Active
same,IC50,[5]; huvec,Not Active
same,IC50,[6],Not Active
O=c1cc(-c2ccccc2)oc2ccc3ccccc3c12 [BETA-NAPHTHOFLAVONE],IC50,[1]; read-out: IC50,2.51 µM
same,IC50,[2],Not Active
same,Ki,[2],Not Active
same,IC50,[3],Not Active
same,IC50,[4],Not Active
same,IC50,[5]; huvec,Not Active
same,IC50,[6],Not Active
CC(C)C[C@H]1C(=O)N2CCC[C@H]2[C@]2(O)O[C@](NC(=O)[C@@H]3C=C4c5cccc6[nH]c(Br)c(c56)C[C@H]4N(C)C3)(C(C)C)C(=O)N12 [BROMOCRIPTINE],IC50,[1]; insect cells,Not Active
same,IC50,[2],Not Active
same,Ki,[2],Not Active
same,IC50,[3],Not Active
same,IC50,[4],Not Active
same,IC50,[5]; huvec,Not Active
same,IC50,[6],Not Active
CS(=O)(=O)OCCCCOS(C)(=O)=O [BUSULFAN],IC50,[1]; insect cells,Not Active
same,IC50,[2],Not Active
same,Ki,[2],Not Active
same,IC50,[3],Not Active
same,IC50,[4],Not Active
same,IC50,[5]; huvec,Not Active
same,IC50,[6],Not Active
O=C(/C=C/c1ccc(O)c(O)c1)OCCc1ccccc1 [CAFFEIC ACID PHENETHYL ESTER],IC50,[1]; read-out: IC50,4.21 µM
same,IC50,[2],Not Active
same,Ki,[2],Not Active
same,IC50,[3],Not Active
same,IC50,[4],Not Active
same,IC50,[5]; huvec,Not Active
same,IC50,[6],Not Active
COc1cc(CNC(=O)CCCC/C=C/C(C)C)ccc1O [CAPSAICIN],IC50,[1]; insect cells,Not Active
same,IC50,[2],Not Active
same,Ki,[2],Not Active
same,IC50,[3],Not Active
same,IC50,[4],Not Active
same,IC50,[5]; huvec,Not Active
same,IC50,[6],Not Active
NC(=O)N1c2ccccc2C=Cc2ccccc21 [CARBAMAZEPINE],IC50,[1]; insect cells,Not Active
same,IC50,[2],Not Active
same,Ki,[2],Not Active
same,IC50,[3],Not Active
same,IC50,[4],Not Active
same,IC50,[5]; huvec,Not Active
same,IC50,[6],Not Active
CCOC(=O)n1ccn(C)c1=S [CARBIMAZOLE],IC50,[1]; insect cells,Not Active
same,IC50,[2],Not Active
same,Ki,[2],Not Active
same,IC50,[3],Not Active
same,IC50,[4],Not Active
same,IC50,[5]; huvec,Not Active
same,IC50,[6],Not Active
Oc1ccccc1O [CATECHOL],IC50,[1]; read-out: IC50,17.4 µM
same,IC50,[2],Not Active
same,Ki,[2],Not Active
same,IC50,[3],Not Active
same,IC50,[4],Not Active
same,IC50,[5]; huvec,Not Active
same,IC50,[6],Not Active
CO[C@@]1(NC(=O)CSCC#N)C(=O)N2C(C(=O)O)=C(CSc3nnnn3C)CS[C@@H]21 [CEFMETAZOLE],IC50,[1]; insect cells,Not Active
same,IC50,[2],Not Active
same,Ki,[2],Not Active
same,IC50,[3],Not Active
same,IC50,[4],Not Active
same,IC50,[5]; huvec,Not Active
same,IC50,[6],Not Active
CN(C(=O)CCCOc1ccc2[nH]c(=O)ccc2c1)C1CCCCC1 [CILOSTAMIDE],IC50,[1]; insect cells,Not Active
same,IC50,[2],Not Active
same,Ki,[2],Not Active
same,IC50,[3],Not Active
same,IC50,[4],Not Active
same,IC50,[5]; huvec,Not Active
same,IC50,[6],Not Active
CC(C)(Oc1ccc(C2CC2(Cl)Cl)cc1)C(=O)O (stereo not given) [CIPROFIBRATE],IC50,[1]; insect cells,Not Active
same,IC50,[2],Not Active
same,Ki,[2],Not Active
same,Ki,[3],Not Active
same,IC50,[4],Not Active
same,IC50,[5]; huvec,Not Active
same,IC50,[6],Not Active
Nc1nc(Cl)nc2c1ncn2[C@H]1C[C@H](O)[C@@H](CO)O1 [CLADRIBINE],IC50,[1]; insect cells,Not Active
same,IC50,[2],Not Active
same,Ki,[2],Not Active
same,IC50,[3],Not Active
same,IC50,[4],Not Active
same,IC50,[5]; huvec,Not Active
same,IC50,[6],Not Active
